From ChEMBL document CHEMBL4359816, “Discovery and Optimization of Quinolinone Derivatives as Potent, Selective, and Orally Bioavailable Mutant Isocitrate Dehydrogenase 1 (mIDH1) Inhibitors” (J Med Chem, 2019) come the findings set out here.

Values after ≈ are worked out from the molar mass of the structure shown.

For data set [1], the target named is T1, Isocitrate dehydrogenase [NADP] cytoplasmic (Homo sapiens, UniProt O75874, R132C). In words: Inhibition of human Myc-DDK-tagged IDH1 R132C mutant assessed as reduction in NADPH consumption pre-incubated for 15 mins followed by alpha-ketoglutarate substrate and NADPH addition after 45 mins by diaphorase and resazurin dye based assay. Background: The colour change of resazurin is a common sign of viable cells or microbes.

Data set [2] can be described thus: Total Cmax in BALB/c mouse at 5 mg/kg, po after 1 hr. The arrangement: dose 5 mg/kg, route oral. Format: ADME, organism-based. The note with it: in vivo.
Data set [3] concerns the target T1, Isocitrate dehydrogenase [NADP] cytoplasmic. In words: Inhibition of human Myc-DDK-tagged IDH1 R132C mutant expressed in human U87MG cells assessed as reduction in 2-HG levels after 24 hrs by RapidFire high-throughput mass spectrometry assay. Format: cell-based.
The nature of data set [4]: AUC (0 to 8 hrs) in BALB/c mouse at 5 mg/kg, po measured up to 24 hrs. Format: ADME, organism-based. The arrangement: dose 5 mg/kg, time < 8 hr, route oral. The note with it: in vivo.
Data set [5] in a line: Total plasma concentration in BALB/c mouse at 5 mg/kg, po at 4 hrs. Format: ADME, organism-based.
In data set [6] the target is T1, Isocitrate dehydrogenase [NADP] cytoplasmic. Nature of the data set: Inhibition of IDH1 R132C mutant in human HCT116 cells assessed as reduction in 2-HG levels after 24 hrs by RapidFire high-throughput mass spectrometry assay. Format: cell-based.
Data set [7] can be described thus: Metabolic stability in human liver microsomes assessed as compound remaining after 30 mins. Format: ADME, Microsome. The note with it: read-out: Stability. (In general: Microsomes from liver hold many membrane-bound enzymes, among them those of drug oxidation.)
The nature of data set [8]: Half-life in BALB/c mouse at 5 mg/kg, po measured up to 24 hrs. It counts as ADME, organism-based. The settings on record: in vivo.
For data set [9], the species on record is Homo sapiens. Format: cell-based.
Data set [10] deals with Isocitrate dehydrogenase [NADP] cytoplasmic (Homo sapiens, UniProt O75874). In words: Inhibition of wild-type IDH1 (unknown origin) by NADPH fluorescence based assay.
The nature of data set [11]: Kinetic solubility of the compound. It counts as physicochemical. The settings on record: read-out: Kinetic_solubility.
Data set [12] is described as follows: Metabolic stability in mouse liver microsomes assessed as compound remaining after 30 mins. Format: ADME, Microsome. The settings on record: read-out: Stability.

T1 sequence (O75874 2-414 R132C limits assumed): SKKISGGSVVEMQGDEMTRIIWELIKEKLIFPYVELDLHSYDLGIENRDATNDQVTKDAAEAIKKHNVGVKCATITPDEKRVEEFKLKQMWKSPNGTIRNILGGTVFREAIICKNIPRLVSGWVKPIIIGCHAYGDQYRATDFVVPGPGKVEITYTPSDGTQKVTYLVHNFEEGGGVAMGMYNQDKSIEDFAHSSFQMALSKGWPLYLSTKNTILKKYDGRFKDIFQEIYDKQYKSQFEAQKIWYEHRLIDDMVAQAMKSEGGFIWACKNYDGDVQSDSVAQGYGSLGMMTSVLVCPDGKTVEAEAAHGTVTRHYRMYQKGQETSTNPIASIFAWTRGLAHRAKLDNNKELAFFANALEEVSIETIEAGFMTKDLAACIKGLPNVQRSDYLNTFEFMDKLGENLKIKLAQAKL
Chain of Isocitrate dehydrogenase [NADP] cytoplasmic (Homo sapiens, UniProt O75874) (O75874 whole entry): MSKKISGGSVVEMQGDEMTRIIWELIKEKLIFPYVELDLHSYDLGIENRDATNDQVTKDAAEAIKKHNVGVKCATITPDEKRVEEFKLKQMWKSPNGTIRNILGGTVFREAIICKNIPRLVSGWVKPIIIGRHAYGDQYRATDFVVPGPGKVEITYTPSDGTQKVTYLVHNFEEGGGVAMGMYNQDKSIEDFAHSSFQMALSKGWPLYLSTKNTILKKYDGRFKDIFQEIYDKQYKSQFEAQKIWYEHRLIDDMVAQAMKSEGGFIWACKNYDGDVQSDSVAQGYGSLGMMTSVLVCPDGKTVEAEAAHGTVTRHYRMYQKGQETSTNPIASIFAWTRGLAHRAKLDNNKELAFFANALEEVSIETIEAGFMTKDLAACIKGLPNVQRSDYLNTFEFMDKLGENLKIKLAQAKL

By IC50 is commonly meant the concentration that gives 50% inhibition. One may read the Cmax as the highest concentration seen after dosing. As usually defined, the AUC(0-t) is the area under the concentration-time curve up to a stated or last time point. Higher therefore signals high exposure. One may read the half-life as the time needed for the level to fall by half in the phase considered. Higher therefore signals slow decline. `COc1cc(NCc2cc3cc(Cl)ccc3[nH]c2=O)ccc1C#N`: the IC50 in data set [1] was 2250 nM; in [3], 1250 nM; in data set [6], 1920 nM; in data set [10], 100000 nM. Besides, in data set [2], the Cmax was 1060 nM. Also, the AUC(0-t) at 8 h in data set [4] is 2.45 µM·h. The molecule also had a concentration at 4 h in data set [5] of 100 nM. The remaining at 0.5 h stood at 81% in data set [7] and 42% in data set [12]. The half-life in data set [8] is 1.27 h. For the same molecule, the Ratio IC50 in data set [9] was 4. Further, the solubility kinetic in data set [11] was determined as 0.43 µM (≈ 0.146 µg/mL).
